Each structure is given as a SMILES string. Bounds are passed on as bounds.

Assay [1] deals with T1, OXA-1 (Escherichia coli, UniProt P13661).
T1 construct: expressed as native untagged proteins; made in house; host or cells: E. coli BL21(DE3)
The assay is described as follows: β-Lactamase enzyme inhibition assay, OXA-1 (nitrocefin substrate). The class given is biochemical. Conditions: nitrocefin substrate 100 μM, 15 min preincubation at 37° C.; read-out: IC50, Class D OXA-1. As for the experimental part: (§1) For SHV-5, Kpc-2, p99AmpC and OXA-1 β-lactamases, E. coli BL21(DE3) bacterial cells carrying expression plasmids (expressed as native untagged proteins) for the individual β-lactamases were grown in 1 L of Superbroth (Teknova Inc. Hollister, CA) supplemented with 100 μg/ml kanamycin selection and 1×5052 (0.5% glycerol, 0.05% glucose and 0.2% α-lactose) at 35° C. for 18-20 hours. Cells were harvested by centrifugation (4,000×g, 4° C., 20 min), resuspended in 50 ml of 10 mM HEPES pH 7.5 (1/20 of the initial volume). The cells were lysed by sonication (5 pulses of 45 seconds) at 45 W on ice. The lysates were clarified by centrifugation at 10,000×g for 40 minutes at 4° C. […] Active fractions were pooled concentrated, quantitated by BCA protein determination (Thermo Scientific, Rockford, Ill.), dialyzed into PBS and frozen at −80° C. in 20% glycerol until use.
(§2) An equal volume of diluted enzyme stock was added, and the plates were incubated at 37° C. for 15 min. […] Absorbance at 486 nm was immediately monitored for 10 min using a Biotek Powerwave XS2 microplate spectrophotometer using the GEN5 softweare package (Biotek Instruments, Winooski Vt.). […] Maximum rates of hydrolysis were compared to those in control wells (without inhibitors), and percentages of enzyme inhibition were calculated for each concentration of inhibitor. […]

For assay [2], the target named is T2, VIM-2 (Escherichia coli, UniProt Q5U7L7).
T2 construct: made in house; host or cells: E. coli BL21(DE3)
The assay is described as follows: β-Lactamase enzyme inhibition assay, VIM-2 (nitrocefin substrate). The class given is biochemical. Particulars: nitrocefin substrate 100 μM, 15 min preincubation at 37° C.; read-out: IC50, Class B VIM-2. Summed up:
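Purified VIM-2 (Q sepharose anion exchange, HEPES pH 7.5) preincubated with inhibitor 15 min at 37° C. Nitrocefin added at 100 μM final; absorbance at 486 nm monitored 10 min. IC50 from inhibition of initial hydrolysis rate versus inhibitor-free controls.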

The subject of assay [3] is E. coli ESBL4 expressing CTX-M-15. The assay is described as follows: Broth microdilution MIC assay, partner ceftazidime.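 Note: ceftazidime held fixed at 4 µg/mL.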 The class given is cell-based. Particulars: Escherichia coli, read-out: MIC of Exemplary Compounds in presence of fixed β-lactams, Fixed CAZ, E. coli ESBL4 CTX-M-15. On the technique in general: Dilution methods test growth across graded concentrations, often in twofold steps.

Assay [4] relates to E. cloacae 144200 expressing Class C P99 AmpC. The assay is described as follows: Broth microdilution MIC assay, partner ceftazidime.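 Note: ceftazidime held fixed at 4 µg/mL.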 Particulars: Enterobacter cloacae, read-out: MIC of Exemplary Compounds in presence of fixed β-lactams, Fixed CAZ, E. cl. 144200 p99 AmpC. The class given is cell-based.
Assay [5] has as its system P. aeruginosa Ps296 expressing VIM-2. The assay is described as follows: Broth microdilution MIC assay, partner meropenem. The class given is cell-based. Conditions: Pseudomonas aeruginosa, read-out: MIC of Exemplary Compounds in presence of fixed β-lactams, Fixed Mero, P. aerug. Ps296 VIM-2.
Assay [6] has as its system K. pneumoniae 156319 expressing KPC-3. The assay is described as follows: Broth microdilution MIC assay, partner meropenem. The assay is classed as cell-based. Conditions: Klebsiella pneumoniae, read-out: MIC of Exemplary Compounds in presence of fixed β-lactams, Fixed Mero, K.P. 156319 KPC-3.
Assay [7] addresses T3, SHV-5 (Klebsiella pneumoniae, UniProt P0A3M1).
T3 construct: expressed as native untagged proteins; made in house; host or cells: E. coli BL21(DE3)
The assay is described as follows: β-Lactamase enzyme inhibition assay, SHV-5 (cefotaxime substrate). The assay is classed as biochemical. Conditions: 15 min preincubation at 37° C., read-out: IC50, Class A SHV-5. How it is done:
as §1, §2

Assay [8] deals with T4, KPC-2 (Klebsiella pneumoniae, UniProt Q9F663).
T4 construct: expressed as native untagged proteins; made in house; host or cells: E. coli BL21(DE3)
The assay is described as follows: β-Lactamase enzyme inhibition assay, KPC-2 (imipenem substrate). Conditions: 15 min preincubation at 37° C., read-out: IC50, Class A KPC-2. The assay is classed as biochemical. How it is done:
as §1, §2

In assay [9] the target is T5, p99 AmpC (Enterobacter cloacae, UniProt P05364).
T5 construct: expressed as native untagged proteins; made in house; host or cells: E. coli BL21(DE3)
The assay is described as follows: β-Lactamase enzyme inhibition assay, p99 AmpC (nitrocefin substrate). The class given is biochemical. Particulars: nitrocefin substrate 100 μM, 15 min preincubation at 37° C.; read-out: IC50, Class C AmpC. How it is done:
as §1, §2

For assay [10], the system named is S. aureus MSSA-7 producing penicillinase PC-1. The assay is described as follows: Broth microdilution MIC assay, partner piperacillin. The class given is cell-based. Conditions: Staphylococcus aureus, fixed piperacillin 4 μg/mL, read-out: MIC of Exemplary Compounds in presence of fixed β-lactams, Fixed Pip, S. aureus MSSA-7 PC-1.
For assay [11], the system named is K. pneumoniae A-1797 expressing KPC-2 and VIM-4. The assay is described as follows: Broth microdilution MIC assay, partner meropenem. The assay is classed as cell-based. Conditions: Klebsiella pneumoniae, read-out: MIC of Exemplary Compounds in presence of fixed β-lactams, Fixed Mero, K.P. A-1797 KPC-2 VIM-4.

T3 sequence (P0A3M1 22-286): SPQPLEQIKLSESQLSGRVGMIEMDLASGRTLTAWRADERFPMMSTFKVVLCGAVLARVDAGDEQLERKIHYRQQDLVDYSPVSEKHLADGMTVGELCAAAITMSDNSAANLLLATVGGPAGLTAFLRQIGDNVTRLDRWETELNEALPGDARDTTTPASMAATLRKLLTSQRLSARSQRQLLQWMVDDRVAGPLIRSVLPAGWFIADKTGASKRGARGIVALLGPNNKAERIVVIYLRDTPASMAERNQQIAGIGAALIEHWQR
T5 sequence (P05364 21-381): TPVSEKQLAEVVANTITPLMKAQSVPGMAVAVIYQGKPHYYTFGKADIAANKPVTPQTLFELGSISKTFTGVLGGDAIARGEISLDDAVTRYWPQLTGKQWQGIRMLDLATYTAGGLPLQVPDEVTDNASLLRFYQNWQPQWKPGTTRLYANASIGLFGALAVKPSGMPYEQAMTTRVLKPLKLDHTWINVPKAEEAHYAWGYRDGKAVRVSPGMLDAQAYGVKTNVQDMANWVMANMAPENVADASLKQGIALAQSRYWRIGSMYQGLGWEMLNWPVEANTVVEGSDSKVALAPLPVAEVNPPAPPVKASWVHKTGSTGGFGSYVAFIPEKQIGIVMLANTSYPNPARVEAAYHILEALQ
T4 sequence (Q9F663 25-293 limits assumed): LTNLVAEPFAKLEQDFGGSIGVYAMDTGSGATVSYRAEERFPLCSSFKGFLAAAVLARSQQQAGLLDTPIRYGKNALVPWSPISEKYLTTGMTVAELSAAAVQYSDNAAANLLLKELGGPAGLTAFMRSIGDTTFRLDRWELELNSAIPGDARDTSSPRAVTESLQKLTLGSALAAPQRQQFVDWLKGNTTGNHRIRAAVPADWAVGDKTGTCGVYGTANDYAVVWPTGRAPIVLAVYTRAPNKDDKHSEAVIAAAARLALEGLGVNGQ
T1 sequence (P13661 26-276): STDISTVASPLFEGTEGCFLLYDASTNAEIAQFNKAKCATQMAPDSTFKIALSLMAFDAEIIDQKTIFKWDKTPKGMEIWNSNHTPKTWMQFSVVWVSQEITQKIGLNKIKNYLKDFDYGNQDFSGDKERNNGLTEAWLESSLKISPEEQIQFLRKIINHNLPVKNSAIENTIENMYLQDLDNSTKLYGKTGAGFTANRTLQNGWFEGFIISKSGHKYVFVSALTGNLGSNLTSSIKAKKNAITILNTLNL

As usually defined, the IC50 is the concentration needed to halve the response being measured. As a reminder, the MIC is the least concentration at which growth counts as inhibited. In the case of `O=C(Cc1ccc2c(c1)CNC2)N[C@H]1Cc2cccc(C(=O)O)c2OB1O` [Example 36, (3R)-2-hydroxy-3-[(2-isoindolin-5-ylacetyl)amino]-3,4-dihydro-1,2-benzoxaborinine-8-carboxylic acid], the IC50 in assay [1] was under 100 nM; in [2] it was 100 to 1000 nM; in assay [7] it was under 100 nM; in assay [8], under 100 nM; in [9] it was under 100 nM. Moreover, the MIC is under 4 µg/mL in assay [3]; under 4 µg/mL in assay [4]; under 4 µg/mL in assay [5]; under 4 µg/mL in assay [6]; under 4 µg/mL in assay [10]; over 32 µg/mL in assay [11].

These data come from patent US9403850B2, “Beta-lactamase inhibitors” (priority 2013, dated 2016).
